Where a name gives a salt, the structure may show the parent alone. Numbered stars: 1 amine (or outer) side, 2 acyl side, 3 side chain; on linkers, the order of the positions; unused ones are H or OH. Bridge positions count the residues as written; N and C are the ends. Square brackets hold non-standard residues; d marks the D form. Peptide text beside a SMILES is read from it. I, II: the chains in the order shown. Actinocin(9to1) = Cc1c2oc3c(C)ccc(C(=O)[*:1])c3nc-2c(C(=O)[*:2])c(N)c1=O; NMeV = CN[C@H](C(=O)O)C(C)C; Sar = CNCC(=O)O

In the assay the test system is human fibroblasts. In words: Cell proliferation of fibroblasts. It counts as cell-based. To be noted: Fibroblast, 72 hours, CYQUANT, read-out: IC50 cell proliferation of fibroblasts. The procedure: Fibroblasts at 70-90% confluency are trypsinized, replated at 600 cells/well in media in 96-well plates and allowed to attachment overnight. […] Each drug concentration is tested in triplicate wells. Plates containing fibroblasts and drug substance are incubated at 37° C. for 72 hours.
To terminate the assay, the media is removed by gentle aspiration. A 1/400 dilution of CYQUANT 400×GR™ dye indicator (Molecular Probes; Eugene, Oreg.) is added to 1× Cell Lysis buffer, and 200 μL of the mixture is added to the wells of the plate. Plates are incubated at room temperature, protected from light for 3-5 minutes.
For the compound `Nc1ncn([C@@H]2O[C@H](CO)[C@@H](O)[C@H]2O)c(=O)n1` [5-Azacytidine], the IC50 was in the range of 0.6 to 1.2 µM. The result for `O=c1cnn([C@@H]2O[C@H](CO)C(O)[C@@H]2O)c(=O)[nH]1` (stereo partly shown) [6-Azauridine, 6-Azauracil riboside] reads 1.2 to 10 µM; that for `CC[C@@]1(O)C[C@H](O[C@H]2C[C@H](N(C)C)[C@H](O[C@H]3C[C@H](O)[C@H](O[C@H]4CCC(=O)[C@H](C)O4)[C@H](C)O3)[C@H](C)O2)c2c(cc3c(c2O)C(=O)c2c(O)cccc2C3=O)[C@H]1C(=O)OC` [Aclarubicin], 0.0001 to 0.01 µM. As for `Cc1c2oc3c(C)ccc(C(=O)N[C@@H]4C(=O)N[C@H](C(C)C)C(=O)N5CCC[C@H]5C(=O)N(C)CC(=O)N(C)[C@@H](C(C)C)C(=O)O[C@@H]4C)c3nc-2c(C(=O)N[C@@H]2C(=O)N[C@H](C(C)C)C(=O)N3CCC[C@H]3C(=O)N(C)CC(=O)N(C)[C@@H](C(C)C)C(=O)O[C@@H]2C)c(N)c1=O` [Actinomycin D] (I: T[dV]P[Sar][NMeV] / II: T[dV]P[Sar][NMeV]; ester I:1-I:C, II:1-II:C; linker I:N-II:N via Actinocin(9to1)), the IC50 was 0.0001 to 0.01 µM. In the case of `CCCSc1ccc2nc(NC(=O)OC)[nH]c2c1` [Albendazole], the IC50 was 0.1 to 0.6 µM.

Take `S=C(S)N1CCCC1` [Ammonium pyrrolidinedithiocarbamate, 1-Pyrrolidinecarbodithioic acid ammonium salt]: the IC50 was in the range of 0.1 to 0.6 µM. Turning to `N=c1ccn2c(n1)O[C@H]1[C@H](O)[C@@H](CO)O[C@H]12` [Ancitabine hydrochloride], the IC50 is 0.1 to 0.6 µM. As for `O=c1cc(-c2ccc(O)cc2)oc2cc(O)cc(O)c12` [Apigenin, 4,5,7-Trihydroxyflavone], the IC50 was in the range of 1.2 to 10 µM. Turning to `O=C1C(O)=C([C@H]2CC[C@H](c3ccc(Cl)cc3)CC2)C(=O)c2ccccc21` [Atovaquone], the IC50 was 1.2 to 10 µM. As to `Cc1ccc2nc(NCCN)c3ncc(C)n3c2c1` [BMS-345541], the IC50 was 1.2 to 10 µM. On to `O=C(OOC(=O)c1ccccc1)c1ccccc1` [Benzoyl peroxide], for which the IC50 lay within 1.2 to 10 µM. As for `C=C(C)[C@@H]1CC[C@]2(C(=O)O)CC[C@]3(C)[C@H](CC[C@@H]4[C@@]5(C)CC[C@H](O)C(C)(C)[C@@H]5CC[C@]43C)[C@@H]12` [Betulinic acid], the IC50 lay within 1.2 to 10 µM. With `Clc1ccc(CCC(Cn2ccnc2)Sc2c(Cl)cccc2Cl)cc1` (stereo not shown) [Butoconazole Nitrate], the IC50 fell in the range of 1.2 to 10 µM. Regarding `O=C1NC(=O)c2cc(Nc3ccc(F)cc3)c(Nc3ccc(F)cc3)cc21` [CGP53353], the IC50 lay in the range of 1.2 to 10 µM. Consider `CCOc1nc2cccc(C(=O)O)c2n1Cc1ccc(-c2ccccc2-c2nnn[nH]2)cc1` [Candesartan], for which the IC50 lay in the range of 0.01 to 0.1 µM.

As to `O=NN(CCCl)C(=O)NCCCl` [Carmustine], the IC50 is 1.2 to 10 µM. The result for `Cc1ccc(-c2cc(C(F)(F)F)nn2-c2ccc(S(N)(=O)=O)cc2)cc1` [Celecoxib] reads 0.1 to 0.6 µM.

With `C/C=C(\C)C(=O)N[C@@H](c1ccccc1)[C@@H](O)C(=O)O[C@H]1C[C@@]2(O)[C@@H](OC(=O)c3ccccc3)[C@@H]3[C@]4(OC(C)=O)CO[C@@H]4C[C@H](O)[C@@]3(C)C(=O)[C@H](OC(C)=O)C(=C1C)C2(C)C` [Cephalomannine], the IC50 fell in the range of 0.01 to 0.1 µM. The result for `COc1ccc2cc1Oc1ccc(cc1)C[C@H]1c3c(cc4c(c3Oc3cc5c(cc3OC)CCN(C)[C@@H]5C2)OCO4)CCN1C` [Cepharanthine] reads 0.6 to 1.2 µM; that for `COCc1c(C(C)C)nc(C(C)C)c(/C=C/[C@@H](O)C[C@@H](O)CC(=O)O)c1-c1ccc(F)cc1` [Cerivastatin Na], 1.2 to 10 µM. The result for `CC1(COc2ccc(CC3SC(=O)NC3=O)cc2)CCCCC1` (stereo not shown) [Ciglitazone] reads 0.6 to 1.2 µM.

`CC[C@H]1OC(=O)[C@H](C)[C@@H](O[C@H]2C[C@@](C)(OC)[C@@H](O)[C@H](C)O2)[C@H](C)[C@@H](O[C@@H]2O[C@H](C)C[C@H](N(C)C)[C@H]2O)[C@](C)(OC)C[C@@H](C)C(=O)[C@H](C)[C@@H](O)[C@]1(C)O` [Clarithromycin, 6-O-Methylerythromycin]: the IC50 lay within 0.1 to 0.6 µM.
